Entries after “also recorded” stand apart in the source; their conditions may differ.
How the values were obtained:
psoriasis = details: 190 subjects with active psoriatic arthritis and psoriasis, 24 weeks; people with mild to moderate psoriasis; cited from earlier work
[1] = system: peripheral blood mononuclear cells; test: in vitro assay using peripheral blood mononuclear cells; type: cell-based; details: compared with leflunomide
[2] = set-up: species or system mice; details: mouse, in vivo, ip
epidermal hyperplasia = test: rat model of TPA-induced epidermal hyperplasia; type: in vivo, Wistar rats; details: rat dorsal skin
Method: A rat model of epidermal hyperplasia was used to test the pharmacological activity of 2-[(3,5-difluoro-3'-methoxy-1,1'-biphenyl-4-yl)amino]nicotinic acid.
Wistar rats (200- 250 g) were obtained from Harland (Sant Feliu de Codines, Spain) and maintained in standard Chow diet with light:dark cycles and allowed to feed ad libitum during all procedures. TPA (12-O-tetradecanoylphorbol-13-acetate) was purchased from Sigma Chemicals and a stock solution of 10 mg/ml was prepared in acetone.
On the morning of day 1, the back of each animal (n=5) was shaved so that at least three 2x2 sq cm nude skin areas were uncovered. Six hours later, 200 µL of acetone (vehicle) or a solution of TPA ([…]) in acetone was applied onto the skin by employing a silicone pad in which three 2x2 sq cm areas had been cut out. Area A received acetone (vehicle), whereas B and C received TPA. Twenty-four hours after TPA application, a solution of the active ingredient 2-[(3,5-difluoro-3'-methoxy-1,1'-biphenyl-4-yl)amino]nicotinic acid (1% in acetone) was applied to area C, whereas the remainder areas received acetone. Treatment continued for 7 days with daily application of 2-[(3,5-difluoro-3'-methoxy-1,1'-biphenyl-4-yl)amino]nicotinic acid or acetone. Six hours after last application, animals were sacrificed and skin was excised and processed for histological examination using H/E staining. Hyperplasia was evaluated following a score of 0 (normal skin thickness, 2-3 layers) to 3 (marked hyperplastic epidermis, >8 cell layers) by a blinded expert pathologist.

[3] = topical 1% in acetone, 7 applications, histology day 8

levels of bilirrubin in plasma [2]	levels of transaminases in plasma [2]	Compound	benefit compared with placebo (psoriasis)	potency [1]	inflammation induced by TPA (dermal) (epidermal hyperplasia; [3])	mixed perivascular mononuclear infiltration (macrophages, lymphocytes and mastocytes) (epidermal hyperplasia; [3])	hyperplasia (histological score 0 to 3) (epidermal hyperplasia; topical once daily application of 1% in acetone for 7 days, H/E staining, day 8)
–	–	Cc1oncc1C(=O)Nc1ccc(C(F)(F)F)cc1 [leflunomide, 4-Isoxazolecarboxamide, 5-methyl-N-[4-(trifluoromethyl)phenyl]-]	only a moderate benefit compared with placebo	–	–	–	–
does not show an increase	does not show an increase	COc1cccc(-c2cc(F)c(Nc3ncccc3C(=O)O)c(F)c2)c1 [2-[(3,5-difluoro-3'-methoxy-1,1'-biphenyl-4-yl)amino]nicotinic acid]	–	much higher potency than leflunomide	counteracts; also recorded: able to reduce epidermal hyperplasia and dermal inflammation	greatly diminished	reverted; also recorded: counteracts; also recorded: able to reduce epidermal hyperplasia

Source: patent EP2594271A1, “2-[(3,5-difluoro-3'-methoxy-1,1'-biphenyl-4-yl)amino]nicotinic acid for the treatment of psoriasis” (Almirall, S.A., priority 2011, dated 2013)
